Results published in US20250084041A1, “ANTIMICROBIAL COMPOUNDS AND METHODS” (Curza Global, LLC, priority 2021, published 2025).
Where a name gives a salt, the structure may show the parent alone.

How the values were obtained:
E. faecalis (Ef) = assay: Broth microdilution MIC, E. faecalis; assay type: cell-based; conditions: Enterococcus faecalis, read-out: Ef + bicarb 25 (MIC)
Method in brief: (§1)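 MIC values come from a slightly modified CLSI broth microdilution, with eight two-fold compound dilutions tested in triplicate and 5×10^4 CFU/well. Growth medium was cation-adjusted Mueller-Hinton broth, alone or with 25 mM sodium bicarbonate or 0-50% heat-inactivated human serum.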

P. aeruginosa (Pa) = assay: Broth microdilution MIC, P. aeruginosa; assay type: cell-based; conditions: Pseudomonas aeruginosa, read-out: Pa + bicarb 25 (MIC)
Method in brief: as §1

A. baumannii (Ab) = assay: Broth microdilution MIC, A. baumannii; assay type: cell-based; conditions: Acinetobacter baumannii, read-out: Ab + bicarb 25 (MIC)
Method in brief: as §1

E. coli (Ec) = assay: Broth microdilution MIC, E. coli; assay type: cell-based; conditions: Escherichia coli, read-out: E. coli + bicarb 25 (MIC)
Method in brief: as §1

E. coli S30 extract = assay: E. coli S30 extract: inhibition of bacterial protein synthesis (luciferase); assay type: biochemical; conditions: 37° C. 1 hour
Method in brief: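 Coupled transcription-translation in E. coli S30 extract, programmed with pBESTluc plasmid, was run with 8-point 2-fold compound dilutions for 1 h at 37 °C. After a cold stop, luciferase luminescence was read and percent inhibition calculated against no-inhibitor controls.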

[1] = biological target: Rabbit Reticulocyte Lysate; assay: Rabbit Reticulocyte Lysate: inhibition of eukaryotic protein synthesis (luciferase); assay type: biochemical; conditions: 30° C. 90 minutes, read-out: Retic. IC50
Method in brief: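 Nuclease-treated rabbit reticulocyte lysate translating luciferase control RNA with complete amino acids; compounds in 8-point 2-fold dilutions, 90 min at 30° C. Luminescence read after luciferase reagent; % inhibition versus water (no-inhibitor) control, no-RNA wells as background.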

S. aureus (Sa) = assay: Broth microdilution MIC, S. aureus; assay type: cell-based; conditions: Staphylococcus aureus, read-out: Sa + bicarb 25 (MIC)
Method in brief: as §1

SMILES: CN(CC1CC=C(n2ccc(NC(=O)N3CCN(C(=O)C(C)(C)N)CC3)nc2=O)CC1)[C@H]1CC[C@H](N)CC1 (stereo partly drawn) [Compound 30, trans-4-(2-Amino-2-methylpropanoyl)-N-(1-(4-(((4-aminocyclohexyl)(methyl)amino)methyl)cyclohex-1-en-1-yl)-2-oxo-1,2-dihydropyrimidin-4-yl)piperazine-1-carboxamide hydrochloride salt]
- MIC (E. faecalis (Ef)): 8 to 32 µg/mL
- MIC (P. aeruginosa (Pa)): > 32 µg/mL
- MIC (A. baumannii (Ab)): > 32 µg/mL
- MIC (E. coli (Ec)): < 8 µg/mL
- IC50 (E. coli S30 extract): < 500 nM
- IC50 [1]: ≥ 1000 nM
- MIC (S. aureus (Sa)): < 8 µg/mL

SMILES: CC(C)(N)C(=O)N1CCN(C(=O)Nc2ccn(C3CCC(CN[C@H]4C[C@H](N)C4)CC3)c(=O)n2)CC1 (stereo partly drawn) [Compound 43, trans-4-(2-Amino-2-methylpropanoyl)-N-(1-(4-(((3-aminocyclobutyl)amino)methyl)cyclohexyl)-2-oxo-1,2-dihydropyrimidin-4-yl)piperazine-1-carboxamide hydrochloride salt]
- MIC (E. faecalis (Ef)): 8 to 32 µg/mL
- MIC (P. aeruginosa (Pa)): > 32 µg/mL
- MIC (A. baumannii (Ab)): > 32 µg/mL
- MIC (E. coli (Ec)): < 8 µg/mL
- IC50 (E. coli S30 extract): < 500 nM
- IC50 [1]: ≥ 1000 nM
- MIC (S. aureus (Sa)): < 8 µg/mL

SMILES: CC(C)(N)C(=O)N1CCN(C(=O)Nc2ccn(C3CCC(CN[C@H]4C[C@@H](N)C4)CC3)c(=O)n2)CC1 (stereo partly drawn) [Compound 44, cis-4-(2-Amino-2-methylpropanoyl)-N-(1-(4-(((3-aminocyclobutyl)amino)methyl)cyclohexyl)-2-oxo-1,2-dihydropyrimidin-4-yl)piperazine-1-carboxamide hydrochloride salt]
- MIC (E. faecalis (Ef)): 8 to 32 µg/mL
- MIC (P. aeruginosa (Pa)): > 32 µg/mL
- MIC (A. baumannii (Ab)): > 32 µg/mL
- MIC (E. coli (Ec)): < 8 µg/mL
- IC50 (E. coli S30 extract): < 500 nM
- IC50 [1]: ≥ 1000 nM
- MIC (S. aureus (Sa)): < 8 µg/mL

SMILES: CC(C)(N)C(=O)N1CCN(C(=O)Nc2ccn(C3CCC(CN4CCC5(N)CC5C4)CC3)c(=O)n2)CC1 (stereo not shown) [Compound 45, 4-(2-Amino-2-methylpropanoyl)-N-(1-(4-((6-amino-3-azabicyclo[4.1.0]heptan-3-yl)methyl)cyclohexyl)-2-oxo-1,2-dihydropyrimidin-4-yl)piperazine-1-carboxamide hydrochloride salt]
- MIC (E. faecalis (Ef)): < 8 µg/mL
- MIC (P. aeruginosa (Pa)): > 32 µg/mL
- MIC (A. baumannii (Ab)): > 32 µg/mL
- MIC (E. coli (Ec)): < 8 µg/mL
- IC50 (E. coli S30 extract): < 500 nM
- IC50 [1]: ≥ 1000 nM
- MIC (S. aureus (Sa)): < 8 µg/mL

SMILES: CC(C)(N)C(=O)N1CCN(C(=O)Nc2ccn(C3CCC(CN4CC[C@@H](CN)C4)CC3)c(=O)n2)CC1 (stereo partly drawn) [Compound 46, (S)-4-(2-Amino-2-methylpropanoyl)-N-(1-(4-((3-(aminomethyl)pyrrolidin-1-yl)methyl)cyclohexyl)-2-oxo-1,2-dihydropyrimidin-4-yl)piperazine-1-carboxamide hydrochloride salt]
- MIC (E. faecalis (Ef)): > 32 µg/mL
- MIC (P. aeruginosa (Pa)): > 32 µg/mL
- MIC (A. baumannii (Ab)): > 32 µg/mL
- MIC (E. coli (Ec)): < 8 µg/mL
- IC50 (E. coli S30 extract): < 500 nM
- IC50 [1]: ≥ 1000 nM
- MIC (S. aureus (Sa)): < 8 µg/mL

SMILES: CC(C)(N)C(=O)N1CCN(C(=O)Nc2ccn(C3CCC(CN4CC[C@H](CN)C4)CC3)c(=O)n2)CC1 (stereo partly drawn) [Compound 47, (R)-4-(2-Amino-2-methylpropanoyl)-N-(1-(4-((3-(aminomethyl)pyrrolidin-1-yl)methyl)cyclohexyl)-2-oxo-1,2-dihydropyrimidin-4-yl)piperazine-1-carboxamide Hydrochloride]
- MIC (E. faecalis (Ef)): > 32 µg/mL
- MIC (P. aeruginosa (Pa)): > 32 µg/mL
- MIC (A. baumannii (Ab)): > 32 µg/mL
- MIC (E. coli (Ec)): < 8 µg/mL
- IC50 (E. coli S30 extract): < 500 nM
- IC50 [1]: ≥ 1000 nM
- MIC (S. aureus (Sa)): < 8 µg/mL

SMILES: CCN(C[C@H]1CC[C@H](n2ccc(NC(=O)N3CCN(C(=O)C(C)(C)N)CC3)nc2=O)CC1)C1CC2(CC(N)C2)C1 (stereo partly drawn) [Compound 50, trans-4-(2-Amino-2-methylpropanoyl)-N-(1-(4-(((6-aminospiro[3.3]heptan-2-yl)(ethyl)amino)methyl)cyclohexyl)-2-oxo-1,2-dihydropyrimidin-4-yl)piperazine-1-carboxamide hydrochloride salt]
- MIC (E. faecalis (Ef)): < 8 µg/mL
- MIC (P. aeruginosa (Pa)): > 32 µg/mL
- MIC (A. baumannii (Ab)): 8 to 32 µg/mL
- MIC (E. coli (Ec)): < 8 µg/mL
- IC50 (E. coli S30 extract): < 500 nM
- IC50 [1]: ≥ 1000 nM
- MIC (S. aureus (Sa)): < 8 µg/mL
